From US7833939B2, “Herbicide compositions” (Kumiai Chemical Industry Co., Ltd., priority 2002, dated 2010)
One block for each molecule: values may come before it.

Experiments:
corn [1] = assay: Herbicidal effect by upland field soil treatment (Application Example 2): phytotoxicity to corn; assay type: in vivo; conditions: 30th day from treatment
Description: (§1) Test for Herbicidal Effect by Upland Field Soil Treatment
(§2) An upland field soil was filled in a plastic pot of 11 cm each of length, width and depth. Seeds of corn and velvetleaf (Abutilon theophrasti Medic) were sowed, followed by covering with the same soil. The wettable powder produced in accordance with Formulation 1 was weighed so as to provide active ingredients in a predetermined amount, and was diluted with water and sprayed uniformly on the soil surface using a small sprayer, in an amount of 100 liters per […]. Then, growing was made in a greenhouse, and the herbicidal effect of each wettable powder was examined at the 30th day from the treatment in accordance with the standard shown in Table 15.

[2] = system: velvetleaf (Abutilon theophrasti Medic); assay: Herbicidal effect by upland field soil treatment (Application Example 2): velvetleaf; assay type: in vivo; conditions: 30th day from treatment
Description: as §1, §2

corn [3] = assay: Herbicidal effect by upland field soil treatment (Application Example 1): phytotoxicity to corn; assay type: in vivo; conditions: 30th day from treatment
Description: as §1
as §2, with “corn, green foxtail (Setaria viridis)” for “corn”, “common lambsquarters (Chenopodium album L.)” for “velvetleaf (Abutilon theophrasti Medic)”

[4] = system: green foxtail (Setaria viridis); assay: Herbicidal effect by upland field soil treatment (Application Example 1): green foxtail; assay type: in vivo; conditions: 30th day from treatment
Description: as §1
as §2, with “corn, green foxtail (Setaria viridis)” for “corn”, “common lambsquarters (Chenopodium album L.)” for “velvetleaf (Abutilon theophrasti Medic)”

[5] = system: common lambsquarters (Chenopodium album L.); assay: Herbicidal effect by upland field soil treatment (Application Example 1): common lambsquarters; assay type: in vivo; conditions: 30th day from treatment
Description: as §1
as §2, with “corn, green foxtail (Setaria viridis)” for “corn”, “common lambsquarters (Chenopodium album L.)” for “velvetleaf (Abutilon theophrasti Medic)”

[6] = 16 g a.i./ha, upland field soil treatment
[7] = 16 g a.i./ha, soil surface spray of wettable powder, index of Table 15
[8] = 32 g a.i./ha, upland field soil treatment

Compound: CCNc1nc(Cl)nc(NC(C)C)n1 [Atrazine]
Corn (corn [1]; 125 g a.i./ha): 0 (Herbicidal effect or phytotoxicity of from 0 to 9%)
Velvetleaf (Abutilon theophrasti Medic) ([2]; 125 g a.i./ha): 1 (Herbicidal effect or phytotoxicity of from 10 to 19%)

melting point: 105 to 107 °C
Compound: CCn1nc(Cl)c(CS(=O)(=O)C2=NOC(C)(C)C2)c1Cl [Compound 3-0017, 3-(3,5-dichloro-1-ethyl-1H-pyrazol-4-ylmethylsulfonyl)-5,5-dimethyl-2-isoxazoline]
Herbicidal effect Corn (corn [3]; [6]): 0 (Herbicidal effect or phytotoxicity of from 0 to 9%)
Herbicidal effect Green foxtail (Sataria viridis) [4, 6]: 3 (Herbicidal effect or phytotoxicity of from 30 to 39%)
Herbicidal effect Common lambsquarter (Chenopodium album L.) [5, 6]: 3 (Herbicidal effect or phytotoxicity of from 30 to 39%)

melting point: 78 to 79 °C
Compound: Cn1nc(C(F)F)c(CS(=O)(=O)C2=NOC(C)(C)C2)c1Cl [Compound 3-0018, 3-(5-chloro-3-difluoromethyl-1-methyl-1H-pyrazol-4-ylmethylsulfonyl)-5,5-dimethyl-2-isoxazoline]
Herbicidal effect Corn (corn [3]; [6]): 0 (Herbicidal effect or phytotoxicity of from 0 to 9%)
Herbicidal effect Green foxtail (Sataria viridis) [4, 6]: 3 (Herbicidal effect or phytotoxicity of from 30 to 39%)
Herbicidal effect Common lambsquarter (Chenopodium album L.) [5, 6]: 3 (Herbicidal effect or phytotoxicity of from 30 to 39%)

melting point: 115 to 116 °C
Compound: Cn1nc(C(F)(F)F)c(CS(=O)(=O)C2=NOC(C)(C)C2)c1Cl [Compound 3-0039, 3-(5-chloro-1-methyl-3-trifluoromethylpyrazol-4-ylmethanesulfonyl)-5,5-dimethyl-2-isoxazoline]
Herbicidal effect Corn (corn [3]; [7]): 0 (Herbicidal effect or phytotoxicity of from 0 to 9%)
Herbicidal effect Green foxtail (Sataria viridis) [4, 7]: 3 (Herbicidal effect or phytotoxicity of from 30 to 39%)
Herbicidal effect Common lambsquarter (Chenopodium album L.) [5, 7]: 3 (Herbicidal effect or phytotoxicity of from 30 to 39%)

Compound: Cn1nc(C(F)(F)F)c(CS(=O)(=O)C2=NOC(C)(C)C2)c1OC(F)F [Compound 3-188]
Corn (corn [1]; 16 g a.i./ha): 0 (Herbicidal effect or phytotoxicity of from 0 to 9%)
Corn (corn [1]; 32 g a.i./ha): 0 (Herbicidal effect or phytotoxicity of from 0 to 9%)
Velvetleaf (Abutilon theophrasti Medic) ([2]; 16 g a.i./ha): 2 (Herbicidal effect or phytotoxicity of from 20 to 29%)
Velvetleaf (Abutilon theophrasti Medic) ([2]; 32 g a.i./ha): 2 (Herbicidal effect or phytotoxicity of from 20 to 29%)

melting point: 98 to 100 °C
Compound: CCn1nc(C(F)(F)F)c(CS(=O)(=O)C2=NOC(C)(C)C2)c1OC(F)F [Compound 3-0190, 3-(5-difluoromethoxy-1-ethyl-3-trifluoromethyl-1H-pyrazol-4-ylmethanesulfonyl)-5,5-dimethyl-2-isoxazoline]
Herbicidal effect Corn (corn [3]; [7]): 0 (Herbicidal effect or phytotoxicity of from 0 to 9%)
Herbicidal effect Green foxtail (Sataria viridis) [4, 7]: 3 (Herbicidal effect or phytotoxicity of from 30 to 39%)
Herbicidal effect Common lambsquarter (Chenopodium album L.) [5, 7]: 1 (Herbicidal effect or phytotoxicity of from 10 to 19%)

melting point: 135 to 136 °C
Compound: Cc1onc(C(F)(F)F)c1CS(=O)(=O)C1=NOC(C)(C)C1 [Compound 4-0001, 5,5-dimethyl-3-(5-methyl-3-trifluoromethylisoxazol-4-ylmethylsulfonyl)-2-isoxazoline]
Herbicidal effect Corn (corn [3]; [8]): 0 (Herbicidal effect or phytotoxicity of from 0 to 9%)
Herbicidal effect Green foxtail (Sataria viridis) [4, 8]: 2 (Herbicidal effect or phytotoxicity of from 20 to 29%)
Herbicidal effect Common lambsquarter (Chenopodium album L.) [5, 8]: 1 (Herbicidal effect or phytotoxicity of from 10 to 19%)
